From paper PMC10254233, “Synthesis and In Vitro Biological Evaluation of p-Carborane-Based Di-tert-butylphenol Analogs” (Molecules, 2023)

What was measured:
[1] = served as references for the HPLC method; cited from earlier work
physchem = conditions: pH 7.4
[2] = system: HCT116 colorectal carcinoma; assay: Cell viability, crystal violet (CV) assay, HCT116; type: cell-based; conditions: Homo sapiens, HCT-116; 72 h, mean ± SD
Method: (§1) Five human cell lines (A375 melanoma, A549 lung adenocarcinoma, HCT116 and HT29 colorectal carcinoma, MDA-MB-231 triple-negative breast adenocarcinoma) were used to study the antitumor effects of the di-tert-butylphenols and their respective carborane analogs. All selected cell lines were derived from inflammation-associated tumors.
(§2) After the incubation period, the supernatant was discarded from the wells, and the cells were washed two times with 200 µL of PBS. Next, MTT solution at a final concentration of 0.5 mg/mL was added and incubated at 37 °C until purple formazan crystals were formed (30 min to one hour). After incubation, the dye was discarded. In order to dissolve the formed formazan crystals DMSO was added, and the absorbance was measured at λmax = 540 nm, with the reference/background wavelength of 670 nm. All results are expressed as a percentage of the control value which was arbitrary set to 100%. After 72 h treatment, cells were washed with 200 µL of PBS and fixed with 4% paraformaldehyde (PFA) for 15 min at room temperature (RT). Next, cells were stained with 1% CV solution. After 20 min, cells were washed in tap water and dried on air. Dye was dissolved in 33% acetic acid and the absorbance was measured at λmax = 540 nm, with the reference/background wavelength of 670 nm. Results were expressed as a percentage of the control value which was arbitrary set to 100%.
(§3) 1. General methods, materials, and procedures
(§4) 1.1.1. Reagents and cells
(§5) Reagents and cells were obtained from following manufacturers: Capricorn Scientific GmbH (Hessen, Germany) – Culture medium RPMI-1640, Dulbecco's Modified Eagle Medium (DMEM), and fetal bovine serum (FBS). Serva (Heidelberg, Germany) – Paraformaldehyde (PFA). Sigma (St. Louis, MO, USA) – Ethylenediaminetetraacetic acid (EDTA), Dimethyl sulfoxide (DMSO), chloroquine, CV, Triton X-100, RNase, PI, PBS, 3-MA, CFSE, and fluorescent mounting medium. AppliChem (MO, USA) –MTT. Thermo Fisher Scientific (Waltham, MA, USA) – DHR. R&D Systems (Minneapolis, MN, USA) – ApoStat. BD (Pharmingen, San Diego, SAD) – Annexin V-FITC (AnnV). Biological Industries (Cromwell, CT, USA) – Penicillin Streptomycin solution. […]
(§6) Afterwards, cells were washed with phosphate-buffered saline (PBS) and stained with AnnV (15 μg/mL) and PI (15 μg/mL). After 15 min incubation at room temperature (RT) protected from light the cells were resuspended in AnnV-binding buffer and analysed using flow cytom-etry. HCT116 cells were incubated with pan-caspase inhibitor Apostat for 30 min at 37 °C to determine whether detected apoptosis was mediated by caspase activation. Afterwards, cells were washed with PBS and analyzed using flow cytometry. […] Afterwards cells were washed with PBS, resuspended and analyzed by flow cytometry (CyFlow® Space Partec using the PartecFloMax® software

[3] = system: MDA-MB-231 triple-negative breast adenocarcinoma; assay: Cell viability, MTT assay, MDA-MB-231; type: cell-based, human; conditions: Homo sapiens, MDA-MB-231; 72 h, mean ± SD
Method: as §1, §2, §3, §4
(§7) Reagents and cells were obtained from following manufacturers: Capricorn Scientific GmbH (Hessen, Germany) – Culture medium RPMI-1640, Dulbecco's Modified Eagle Medium (DMEM), and fetal bovine serum (FBS). Serva (Heidelberg, Germany) – Paraformaldehyde (PFA). Sigma (St. Louis, MO, USA) – Ethylenediaminetetraacetic acid (EDTA), Dimethyl sulfoxide (DMSO), chloroquine, CV, Triton X-100, RNase, PI, PBS, 3-MA, CFSE, and fluorescent mounting medium. AppliChem (MO, USA) –MTT. Thermo Fisher Scientific (Waltham, MA, USA) – DHR. R&D Systems (Minneapolis, MN, USA) – ApoStat. BD (Pharmingen, San Diego, SAD) – Annexin V-FITC (AnnV). Biological Industries (Cromwell, CT, USA) – Penicillin Streptomycin solution. American Type Culture Collection (ATCC, Manassas, Virginia, USA) – Human lung carcinoma (A549), human breast adenocarcinoma (MDA-MB-231), human colorectal ade-nocarcinoma (HT-29), human colorectal carcinoma (HCT116) and human melanoma (A375).
(§8) Cell lines (A375, HCT116, HT-29 and MDA-MB-231) were cultivated in HEPES-buffered RPMI-1640 medium while A549 cell line was cultivated in Dulbecco's Modified Eagle Medium (DMEM) which were previously supplemented with 10% heat-inactivated FBS, penicillin (100 units/mL), and streptomycin (100 μg/mL). All cells were kept at 37 °C in a humidified atmosphere with 5% CO2. For viability determi-nation cells were seeded at following densities in 96-well plates: 4 x 10^3 cells/well (A375, HT-29 and MDA-MB-231), 5 x 10^3 cells/well (HCT116), and 3 x 10^3 cells/well (A549). […]
(§9) Afterwards, cells were washed with phosphate-buffered saline (PBS) and stained with AnnV (15 μg/mL) and PI (15 μg/mL). After 15 min incubation at room temperature (RT) protected from light the cells were resuspended in AnnV-binding buffer and analysed using flow cytom-etry. HCT116 cells were incubated with pan-caspase inhibitor Apostat for 30 min at 37 °C to determine whether detected apoptosis was mediated by caspase activation. Afterwards, cells were washed with PBS and analyzed using flow cytometry. HCT116 cells were stained with 1 µg/mL of AO solution for 15 min at 37 °C to detect the presence of autophagic cell death. Afterwards cells were washed with PBS, resuspended and analyzed by flow cytometry (CyFlow® Space Partec using the PartecFloMax® software

[4] = system: HT-29 colorectal carcinoma; assay: Cell viability, crystal violet (CV) assay, HT-29; type: cell-based; conditions: Homo sapiens, 72 h, mean ± SD
Method: as §1, §2, §3, §4, §5, §6

A375 melanoma [5] = assay: Cell viability, crystal violet (CV) assay, A375; type: cell-based; conditions: Homo sapiens, A-375; 72 h, mean ± SD
Method: as §1, §2, §3, §4, §5, §6

A375 melanoma [6] = assay: Cell viability, MTT assay, A375; type: cell-based, human; conditions: Homo sapiens, A-375; 72 h, mean ± SD
Method: as §1, §2, §3, §4, §7, §8
(§10) Afterwards, cells were washed with phosphate-buffered saline (PBS) and stained with AnnV (15 μg/mL) and PI (15 μg/mL). […]
(§11) PBS and analyzed using flow cytometry. HCT116 cells were stained with 1 µg/mL of AO solution for 15 min at 37 °C to detect the presence of autophagic cell death. Afterwards cells were washed with PBS, resuspended and analyzed by flow cytometry (CyFlow® Space Partec using the PartecFloMax® software

A549 lung adenocarcinoma [7] = assay: Cell viability, crystal violet (CV) assay, A549; type: cell-based; conditions: Homo sapiens, 72 h, mean ± SD
Method: as §1, §2, §3, §4, §5, §6

[8] = system: HCT116 colorectal carcinoma; assay: Cell viability, MTT assay, HCT116; type: cell-based, human; conditions: Homo sapiens, HCT-116; 72 h, mean ± SD
Method: as §1, §2, §3, §4, §7, §8, §10, §11

[9] = system: HT-29 colorectal carcinoma; assay: Cell viability, MTT assay, HT-29; type: cell-based, human; conditions: Homo sapiens, HT-29; 72 h, mean ± SD
Method: as §1, §2, §3, §4, §7, §8, §9

[10] = system: MDA-MB-231 triple-negative breast adenocarcinoma; assay: Cell viability, crystal violet (CV) assay, MDA-MB-231; type: cell-based; conditions: Homo sapiens, 72 h, mean ± SD
Method: as §1, §2, §3, §4, §5, §6

A549 lung adenocarcinoma [11] = assay: Cell viability, MTT assay, A549; type: cell-based, human; conditions: Homo sapiens, A549; 72 h, mean ± SD
Method: as §1, §2, §3, §4, §7, §8, §9

[12] = system: primary peritoneal exudate cells; assay: Viability of primary peritoneal exudate cells, CV assay; type: cell-based; conditions: 72 h, cells from healthy mice
Method: Primary peritoneal exudates cells (PEC) isolated from C57BL/6 mice were used to estimate the selec-
Mice were obtained from the animal facility at the Institute for Biological Research “Siniša Stanković” - National Institute of the Republic of Serbia, University of Belgrade (Belgrade, Serbia). PEC were cultivated in HEPES-buffered (HEPES = 4-
5% heat-inactivated fetal bovine serum (FBS) and antibiotics under standard growth conditions (37 °C, 5% CO2). For viability determination cells were seeded at a density of 2 x 10^5 cells/well in 96-well plates.
Non-adherent cells were removed two hours after seeding and treatment was applied. Cell viability was determined after 72 h using a crystal violet (CV) assay.
the indicated concentrations for 72 h. Cell viability was determined by the CV test. The data are presented as a mean ± SD from one repre-
sentative out of three independent experiments. *p<0.05 refer to untreated cultures.

Row | SMILES | logD7.4 of HPLC references [1] | chromatographic logD (physchem) | IC50 [2] | IC50 [3] | IC50 [4] | IC50 (A375 melanoma [5]) | IC50 (A375 melanoma [6]) | IC50 (A549 lung adenocarcinoma [7]) | IC50 [8] | IC50 [9] | IC50 [10] | IC50 (A549 lung adenocarcinoma [11]) | viability of primary peritoneal exudate cells [12]
1 | CC1=C(C(=O)Nc2ccccc2)S(=O)(=O)CCO1 [Oxycarboxin] | 1.13 |  |  |  |  |  |  |  |  |  |  |  | 
2 | CC(C)(C)c1cc(C(=O)c2cccs2)cc(C(C)(C)C)c1O [Compound R-830, 2,6-di-tert-butyl-4-(2’-thenoyl)phenol] |  | 3.91 | 30.8 ± 3.2 µM | 33.3 ± 1.2 µM | 24.9 ± 1.3 µM | 29.4 ± 2.3 µM | 16.7 ± 3.1 µM | 32.6 ± 1.3 µM | 20.6 ± 0.4 µM | 19.4 ± 0.4 µM | 34 ± 1.6 µM | 19 ± 0.7 µM | diminished the viability of primary cells at 100 µM
3 | CON1CCC(=Cc2cc(C(C)(C)C)c(O)c(C(C)(C)C)c2)C1=O [Compound E-5110, 3-([3,5-bis(1,1-dimethylethyl)-4-hydroxyphenyl]methylene)-1-methoxy-2-pyrrolidinone] |  | 3.35 | 39.6 ± 2.8 µM | 34.2 ± 1.2 µM | 39.8 ± 2.1 µM | 33.5 ± 1.7 µM | 12.9 ± 1.1 µM | 41.1 ± 4.3 µM | 25.1 ± 1.1 µM | 25.6 ± 2.6 µM | 47.3 ± 1.7 µM | 22.1 ± 1.6 µM | 
